Test results from patent publication US20090131356A1, “miR-15, miR-26, miR-31, miR-145, miR-147, miR-188, miR-215, miR-216, miR-331, mmu-miR-292-3P REGULATED GENES AND PATHWAYS AS TARGETS FOR THERAPEUTIC INTERVENTION” (ASURAGEN, INC., priority 2006, published 2009).

Tests used:
Format in all cases: cell-based, human
H1299 cells = assay: Alamar Blue proliferation assay, H1299
Source text: (§1) The inventors assessed the therapeutic effect of hsa-miR-147 for lung cancer by using 12 individual lung cancer cell lines. To measure cellular proliferation of lung cancer cells, the following parental non-small cell lung cancer (NSCLC) cells were used: cells derived from lung adenocarcinoma (A549, H1299, H522, H838, Calu-3, HCC827, HCC2935), cells derived from lung squamous cell carcinoma (H520, H226), cells derived from lung adenosquamous cell carcinoma (H596), cells derived from lung bronchioalveolar carcinoma (H1650), and cells derived from lung large cell carcinoma (H460). In addition to these parental cell lines, highly metastatic NSCLC cells were used that stably express the firefly luciferase gene: A549-luc, H460-luc, HCC827-luc, H1650-luc, H441-luc. Unlike the parental cell lines, these metastatic cells readily migrate to distant sites of the test animal and form metastases upon subcutaneous, orthotopic, or intravenous injection. Synthetic hsa-miR-147 or negative control miRNA was delivered via lipid-based transfection into A549, H1299, H522, H838, Calu-3, HCC827, HCC2935, H520, H596, H1650, H460, A549-luc, H460-luc, HCC827-luc, H1650-luc, H441-luc cells and via electroporation into H226 cells. Lipid-based reverse transfection was carried out in triplicates according to a published protocol and the following parameters: 5000-12000 cells per 96 well, 0.1-0.2 μl lipofectamine-2000 (Invitrogen, Carlsbad, Calif.) in 20 μl OptiMEM (Invitrogen), […] final concentration of miRNA in 100 μl (Ovcharenko et al., 2005). Electroporation of H226 cells was carried out using the BioRad GenePulserXcell™ instrument with the following settings: 5×10^6 cells with 5 μg miRNA in 200 μl OptiMEM, square wave pulse at 250 V for 5 ms. […]
The inventors determined sensitivity and specificity of hsa-miR-147 by administering hsa-miR-147 or negative control miRNA at increasing concentrations, ranging from 0 pM to 3 nM. Delivery of miRNA and cellular proliferation of A549 and H1299 cells was assessed as described above. […]

H522 cells = assay: Alamar Blue proliferation assay, H522
Source text: as §1, with “ms. Electroporated H226 cells were seeded at 7000 cells per 96-well in a total volume of 100 μl. All cells except for Calu-3 cells were harvested 72 hours post transfection or electroporation for assessment of cellular proliferation. Calu-3 cells were harvested 10 days post transfection.” for “ms.”

H838 cells = assay: Alamar Blue proliferation assay, H838
Source text: as §1, with “ms. Electroporated H226 cells were seeded at 7000 cells per 96-well in a total volume of 100 μl. All cells except for Calu-3 cells were harvested 72 hours post transfection or electroporation for assessment of cellular proliferation. Calu-3 cells were harvested 10 days post transfection.” for “ms.”

HCC827 cells = assay: Alamar Blue proliferation assay, HCC827
Source text: as §1, with “ms. Electroporated H226 cells were seeded at 7000 cells per 96-well in a total volume of 100 μl. All cells except for Calu-3 cells were harvested 72 hours post transfection or electroporation for assessment of cellular proliferation. Calu-3 cells were harvested 10 days post transfection.” for “ms.”

H596 cells = assay: Alamar Blue proliferation assay, H596
Source text: as §1, with “ms. Electroporated H226 cells were seeded at 7000 cells per 96-well in a total volume of 100 μl. All cells except for Calu-3 cells were harvested 72 hours post transfection or electroporation for assessment of cellular proliferation. Calu-3 cells were harvested 10 days post transfection.” for “ms.”

H460 cells = assay: Alamar Blue proliferation assay, H460
Source text: as §1, with “ms. Electroporated H226 cells were seeded at 7000 cells per 96-well in a total volume of 100 μl. All cells except for Calu-3 cells were harvested 72 hours post transfection or electroporation for assessment of cellular proliferation. Calu-3 cells were harvested 10 days post transfection.” for “ms.”

A549-luc cells = assay: Alamar Blue proliferation assay, A549-luc
Source text: as §1, with “ms. Electroporated H226 cells were seeded at 7000 cells per 96-well in a total volume of 100 μl. All cells except for Calu-3 cells were harvested 72 hours post transfection or electroporation for assessment of cellular proliferation. Calu-3 cells were harvested 10 days post transfection.” for “ms.”

H460-luc cells = assay: Alamar Blue proliferation assay, H460-luc
Source text: as §1, with “ms. Electroporated H226 cells were seeded at 7000 cells per 96-well in a total volume of 100 μl. All cells except for Calu-3 cells were harvested 72 hours post transfection or electroporation for assessment of cellular proliferation. Calu-3 cells were harvested 10 days post transfection.” for “ms.”

HCC827-luc cells = assay: Alamar Blue proliferation assay, HCC827-luc
Source text: as §1, with “ms. Electroporated H226 cells were seeded at 7000 cells per 96-well in a total volume of 100 μl. All cells except for Calu-3 cells were harvested 72 hours post transfection or electroporation for assessment of cellular proliferation. Calu-3 cells were harvested 10 days post transfection.” for “ms.”

H1650-luc cells = assay: Alamar Blue proliferation assay, H1650-luc
Source text: as §1, with “ms. Electroporated H226 cells were seeded at 7000 cells per 96-well in a total volume of 100 μl. All cells except for Calu-3 cells were harvested 72 hours post transfection or electroporation for assessment of cellular proliferation. Calu-3 cells were harvested 10 days post transfection.” for “ms.”

H441-luc cells = assay: Alamar Blue proliferation assay, H441-luc
Source text: as §1, with “ms. Electroporated H226 cells were seeded at 7000 cells per 96-well in a total volume of 100 μl. All cells except for Calu-3 cells were harvested 72 hours post transfection or electroporation for assessment of cellular proliferation. Calu-3 cells were harvested 10 days post transfection.” for “ms.”

[1] = etoposide 10 μM, normalized to negative control miRNA (100%)
[2] = etoposide 50 μM, normalized to negative control miRNA (100%)
[3] = 30 nM, normalized to negative control miRNA (100% proliferation)

COc1cc([C@@H]2c3cc4c(cc3[C@@H](O[C@@H]3O[C@@H]5CO[C@@H](C)O[C@H]5[C@H](O)[C@H]3O)[C@H]3COC(=O)[C@H]23)OCO4)cc(OC)c1O [Etoposide, etoposide]
% proliferation (H1299 cells; [1]): 79.65%
% proliferation (H1299 cells; [2]): 54.38%
% proliferation (H522 cells; [1]): 82.13%
% proliferation (H522 cells; [2]): 61.08%
% proliferation (H838 cells; [1]): 89.71%
% proliferation (H838 cells; [2]): 36.97%
% proliferation (HCC827 cells; [1]): 98.95%
% proliferation (HCC827 cells; [2]): 82.53%
% proliferation (H596 cells; [1]): 88.75%
% proliferation (H596 cells; [2]): 73.39%
% proliferation (H460 cells; [1]): 32.13%
% proliferation (H460 cells; [2]): 27.82%
% proliferation (A549-luc cells; [1]): 8.56%
% proliferation (A549-luc cells; [2]): 0.72%
% proliferation (H460-luc cells; [1]): 15.04%
% proliferation (H460-luc cells; [2]): 2.34%
% proliferation (HCC827-luc cells; [1]): 21.92%
% proliferation (HCC827-luc cells; [2]): 0.75%
% proliferation (H1650-luc cells; [1]): 33.78%
% proliferation (H1650-luc cells; [2]): 5.59%
% proliferation (H441-luc cells; [1]): 41.22%
% proliferation (H441-luc cells; [2]): 1.99%

hsa-miR-147: Synthetic pre-miR-147 (Ambion AM17100; Dharmacon in vivo); mature sequence GUGUGUGGAAAUGCUUCUGC, MIMAT0000251, SEQ ID NO:114 (synthetic pre-miR (Ambion/Dharmacon), chemistry not given here; listed as Homo sapiens)
% proliferation (H1299 cells; [3]): 78.22%
% proliferation (H522 cells; [3]): 89.21%
% proliferation (H838 cells; [3]): 71.44%
% proliferation (HCC827 cells; [3]): 76.18%
% proliferation (H596 cells; [3]): 91.60%
% proliferation (H460 cells; [3]): 72.11%
% proliferation (A549-luc cells; [3]): 75.69%
% proliferation (H460-luc cells; [3]): 39.54%
% proliferation (HCC827-luc cells; [3]): 61.15%
% proliferation (H1650-luc cells; [3]): 59.27%
% proliferation (H441-luc cells; [3]): 55.53%
